Measurements: ChEMBL document CHEMBL1201862, “PubChem BioAssay data set” (2004)
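Each compound was tested at five concentrations against cells in 96-well plates for 48 hours. The concentration for 50% growth inhibition is given as GI50.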 The source made the active and inactive calls. No stated cut-off is given here; in the data, active = GI50 up to about 1.1 µM and inactive = higher.

Tests used:
Assay in all cases: NCI-60 cell line screen, 48 h
SW-620 = test system: SW-620
M14 = test system: M14
NCI-H226 = test system: NCI-H226
MCF7 = test system: MCF7
NCI-H460 = test system: NCI-H460
KM12 = test system: KM12
T47D = test system: T47D
HCC 2998 = test system: HCC 2998
SF-268 = test system: SF-268
Malme-3M = test system: Malme-3M
RXF 393 = test system: RXF 393
MDA-MB-231 = test system: MDA-MB-231
MDA-MB-435 = test system: MDA-MB-435
SK-MEL-28 = test system: SK-MEL-28
SK-MEL-5 = test system: SK-MEL-5
SNB-19 = test system: SNB-19
SK-MEL-2 = test system: SK-MEL-2
NCI-H522 = test system: NCI-H522
SF-295 = test system: SF-295
A498 = test system: A498
ACHN = test system: ACHN
LOX IMVI = test system: LOX IMVI
HL-60 = test system: HL-60
NCI/ADR-RES = test system: NCI/ADR-RES
UO-31 = test system: UO-31
SK-OV-3 = test system: SK-OV-3
OVCAR-3 = test system: OVCAR-3
CAKI-1 = test system: CAKI-1
OVCAR-5 = test system: OVCAR-5
A549 = test system: A549
HOP-62 = test system: HOP-62
PC-3 = test system: PC-3
RPMI-8226 = test system: RPMI-8226
OVCAR-4 = test system: OVCAR-4
MDA-N = test system: MDA-N
K562 = test system: K562
HT-29 = test system: HT-29
SN12C = test system: SN12C
BT-549 = test system: BT-549
SF-539 = test system: SF-539
SNB-75 = test system: SNB-75
MOLT-4 = test system: MOLT-4
Hs-578T = test system: Hs-578T
UACC-62 = test system: UACC-62
NCI-H23 = test system: NCI-H23
U-251 = test system: U-251
DU-145 = test system: DU-145
IGROV-1 = test system: IGROV-1
EKVX = test system: EKVX
HCT-15 = test system: HCT-15
HOP-92 = test system: HOP-92
HCT-116 = test system: HCT-116
TK-10 = test system: TK-10
UACC-257 = test system: UACC-257
SR = test system: SR
786-0 = test system: 786-0
COLO 205 = test system: COLO 205
CCRF-CEM = test system: CCRF-CEM
OVCAR-8 = test system: OVCAR-8

For `COc1ccc(C2c3cc4c(cc3OC(N3CCOCC3)C2C)OCO4)cc1OC` (centres undefined), the GI50 (SW-620) was 4.74 µM (inactive), the GI50 (M14) was 5.38 µM (inactive) and the GI50 (NCI-H226) was 6.9 µM (inactive). The GI50 (MCF7) was 4.97 µM (inactive), the GI50 (NCI-H460) was 6.3 µM (inactive) and the GI50 (KM12) was 4.46 µM (inactive). For the same molecule, the GI50 (T47D) was 4.99 µM (inactive), the GI50 (HCC 2998) was 5.53 µM (inactive) and the GI50 (SF-268) was 13.9 µM (inactive). The GI50 (Malme-3M) was 11.1 µM (inactive), the GI50 (RXF 393) was 5.89 µM (inactive) and the GI50 (MDA-MB-231) was 16.2 µM (inactive). For the same molecule, the GI50 (MDA-MB-435) was 2.04 µM (inactive), the GI50 (SK-MEL-28) was > 50.5 µM (inactive) and the GI50 (SK-MEL-5) was 4.06 µM (inactive). The GI50 (SNB-19) was 7.18 µM (inactive), the GI50 (SK-MEL-2) was 5.77 µM (inactive) and the GI50 (NCI-H522) was 5.51 µM (inactive). The GI50 (SF-295) was 4.39 µM (inactive), the GI50 (A498) was 6.46 µM (inactive) and the GI50 (ACHN) was 10.3 µM (inactive). The GI50 (LOX IMVI) was 6.11 µM (inactive), the GI50 (HL-60) was 3.06 µM (inactive) and the GI50 (NCI/ADR-RES) was 3.61 µM (inactive). The GI50 (UO-31) was 18 µM (inactive), the GI50 (SK-OV-3) was 5.24 µM (inactive) and the GI50 (OVCAR-3) was 3.3 µM (inactive). The GI50 (CAKI-1) was 3.07 µM (inactive), the GI50 (OVCAR-5) was 48.6 µM (inactive) and the GI50 (A549) was 7.82 µM (inactive). For the same molecule, the GI50 (HOP-62) was 12 µM (inactive), the GI50 (PC-3) was 6.43 µM (inactive) and the GI50 (RPMI-8226) was 6.18 µM (inactive). The GI50 (OVCAR-4) was 15.8 µM (inactive), the GI50 (MDA-N) was 1.86 µM (inactive) and the GI50 (K562) was 4.31 µM (inactive). The GI50 (HT-29) was 4.69 µM (inactive), the GI50 (SN12C) was 22.6 µM (inactive) and the GI50 (BT-549) was 7.48 µM (inactive). For the same molecule, the GI50 (SF-539) was 3.89 µM (inactive), the GI50 (SNB-75) was 2.99 µM (inactive) and the GI50 (MOLT-4) was 4.48 µM (inactive). The GI50 (Hs-578T) was 3.51 µM (inactive), the GI50 (UACC-62) was 5.48 µM (inactive) and the GI50 (NCI-H23) was 20.4 µM (inactive). The GI50 (U-251) was 5.52 µM (inactive), the GI50 (DU-145) was 9.42 µM (inactive) and the GI50 (IGROV-1) was 7.64 µM (inactive). For the same molecule, the GI50 (EKVX) was 24.4 µM (inactive), the GI50 (HCT-15) was 4.76 µM and the GI50 (HOP-92) was 8.95 µM (inactive). For the same molecule, the GI50 (HCT-116) was 4.75 µM (inactive), the GI50 (TK-10) was 15.6 µM (inactive) and the GI50 (UACC-257) was 16.7 µM (inactive). For the same molecule, the GI50 (SR) was 7.36 µM (inactive), the GI50 (786-0) was 8.15 µM (inactive) and the GI50 (COLO 205) was 4.76 µM (inactive). The GI50 (CCRF-CEM) was 4.28 µM (inactive) and the GI50 (OVCAR-8) was 20.4 µM (inactive).
